The nature of experiment [1]: In vitro anti-inflammatory activity at 100 mg/ml incubated for 15 mins followed by heating for 10 mins and cooling by albumin denaturation assay relative to control.
The test system of experiment [2] is Mus musculus. Briefly: Anti-inflammatory activity in formalin-induced Swiss albino mouse assessed as reduction in paw edema volume at 10 mg/kg, ip pretreated for 30 mins followed by formalin addition relative to control. The arrangement: scale not given: the % may be the effect or the level left. The class given is functional.
Experiment [3] has as its system Rattus norvegicus. The experiment can be described thus: Anti-inflammatory activity in carrageenan-induced Swiss albino rat assessed as reduction in paw edema by measuring swelling thickness at 10 ml/kg, po pretreated for 1 hr followed by carrageenan addition and measured up to 6 hrs at 1 hr interval relative to control. The arrangement: scale not given: the % may be the effect or the level left. The class given is functional.

A short description of experiment [4]: Selectivity ratio of IC50 for ovine COX1 to IC50 for recombinant human COX2.
The target of experiment [5] is T1, Prostaglandin G/H synthase 2 (Homo sapiens, UniProt P35354).
T1 sequence (P35354 whole entry): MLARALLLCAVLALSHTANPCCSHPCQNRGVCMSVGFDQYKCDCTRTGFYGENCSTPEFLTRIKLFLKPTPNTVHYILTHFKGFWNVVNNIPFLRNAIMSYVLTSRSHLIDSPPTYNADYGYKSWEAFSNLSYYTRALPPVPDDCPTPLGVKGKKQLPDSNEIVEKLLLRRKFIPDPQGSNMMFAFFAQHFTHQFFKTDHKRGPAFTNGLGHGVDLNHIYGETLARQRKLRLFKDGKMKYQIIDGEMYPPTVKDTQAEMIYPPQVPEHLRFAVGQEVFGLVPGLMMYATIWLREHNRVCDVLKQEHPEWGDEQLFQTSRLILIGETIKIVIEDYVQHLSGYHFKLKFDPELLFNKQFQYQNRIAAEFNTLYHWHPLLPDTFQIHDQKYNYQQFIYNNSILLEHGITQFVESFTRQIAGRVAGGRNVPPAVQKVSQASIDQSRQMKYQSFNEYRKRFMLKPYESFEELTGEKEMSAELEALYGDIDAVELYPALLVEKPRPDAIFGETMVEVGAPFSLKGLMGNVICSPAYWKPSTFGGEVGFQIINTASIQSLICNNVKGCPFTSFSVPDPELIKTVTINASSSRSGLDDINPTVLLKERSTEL
Briefly: Inhibition of recombinant human COX2 assessed as decrease in PGE2 release after 10 mins by ELISA.

For experiment [6], the target named is T2, Prostaglandin G/H synthase 2 (Homo sapiens) (UniProt P35354).
T2 sequence (whole entry): T1 sequence (P35354 whole entry)
The following applies: Blood, at 10 µM.
Description: Inhibition of COX2 in LPS-induced human whole blood at 10 uM after 24 hrs by EIA relative to control

In experiment [7] the test system is Rattus norvegicus. Briefly: Anti-inflammatory activity in carrageenan-induced albino rat assessed as reduction in paw edema volume at 20 umol/kg, po measured at 1 hr intervals up to 4 hrs relative to control. In kind it is functional. The arrangement: scale not given: the % may be the effect or the level left.
In experiment [8] the target is T1, Prostaglandin G/H synthase 2. Briefly: Inhibition of COX2 (unknown origin) using arachidonic acid as substrate preincubated for 20 mins followed by substrate addition measured at 1 sec interval up to 60 secs by chemiluminescence assay.

Each structure is given as a SMILES string.

As for `Cc1ccc(Nc2nnc(Cn3nc(-c4ccccc4)c(-c4ccccc4)nc3=O)s2)cc1`, the Activity in experiment [1] was in the range of 71.9 to 79.2%.
`O=C([O-])Cc1ccccc1Nc1c(Cl)cccc1Cl.[Na+]` [DICLOFENAC SODIUM]: the Activity in experiment [2] was determined as 78.82%.
In experiment [1], `O=c1nc(-c2ccccc2)c(-c2ccccc2)nn1Cc1nnc(Nc2ccc(Cl)cc2)s1` registered an Activity of 71.9 to 79.2%.
Turning to `Cc1ccc(-c2cc(C(F)(F)F)nn2-c2ccc(S(N)(=O)=O)cc2)cc1` [CELECOXIB], the Activity in experiment [3] was determined as 62.26%; in experiment [1] it was 80.3%.
Usually IC50 stands for the concentration that inhibits the measured activity by half. `CCOC(=O)CSc1nnc(-c2ccc(S(C)(=O)=O)cc2)c(-c2ccc(F)cc2)n1`: the Ratio IC50 in experiment [4] amounted to 8.79. Moreover, in experiment [5], the IC50 amounted to 10.1 µM.
In general, inhibition refers to how much of the control response was suppressed. Compound `COc1ccc(-c2nnc(N/N=C/c3ccc4c(c3)OCO4)nc2-c2ccc(OC)cc2)cc1` had an inhibition in experiment [6] of 78%.
As for `O=c1nc(-c2ccccc2)c(-c2ccccc2)nn1Cc1nnc(S)n1-c1ccc(Cl)cc1`, the Activity in experiment [1] lay within 71.9 to 79.2%.
With `Cc1ccc(Nc2nnc(Cn3nc(-c4ccccc4)c(-c4ccccc4)nc3=O)o2)cc1`, the Activity in experiment [3] was 57.9 - 61.56%; in experiment [1] it was 71.9 to 79.2%.
As to `COc1ccc2c(c1)c(CC(=O)O)c(C)n2C(=O)c1ccc(Cl)cc1` [INDOMETHACIN], the values for the Activity in experiment [3], in experiment [7] and in experiment [1] were 63.56%, 80.96% and 82.7%, respectively.
Turning to `CCOC(=O)CSc1nnc(-c2ccc(S(C)(=O)=O)cc2)c(-c2ccc(Cl)cc2)n1`, the Ratio IC50 in experiment [4] was 8.79. In addition, in experiment [5], the IC50 was 10.1 µM.
For the compound `COc1ccc(Nc2nnc(Cn3nc(-c4ccccc4)c(-c4ccccc4)nc3=O)o2)cc1`, the Activity in experiment [3] was 57.9 - 61.56%; in experiment [1] it was 71.9 to 79.2%.
As to `Cc1sc2nnn(-c3ccc(F)c(Cl)c3)c(=O)c2c1C`, the Activity in experiment [2] was 36.35%.
`O=c1nc(-c2ccccc2)c(-c2ccccc2)nn1Cc1nnc(Nc2ccc([N+](=O)[O-])cc2)s1` registered an Activity in experiment [1] of 71.9 to 79.2%.
As for `CCOC(=O)CSc1nnc(-c2ccc(S(C)(=O)=O)cc2)c(-c2ccc(C)cc2)n1`, the Ratio IC50 in experiment [4] was 8.79. In addition, the concentration for half-maximal inhibition (IC50) in experiment [5] turned out to be 10.1 µM.
The compound `Cc1ccc(-n2c(S)nnc2Cn2nc(-c3ccccc3)c(-c3ccccc3)nc2=O)cc1` came in with an Activity in experiment [1] of 71.9 to 79.2%.
Consider `Cc1sc2nnn(-c3ccc(F)cc3)c(=O)c2c1C`, for which, in experiment [2], the Activity is 34.12%.
For `CCOC(=O)CSc1nnc(-c2ccc(S(C)(=O)=O)cc2)c(-c2ccc(OC)cc2)n1`, the Ratio IC50 in experiment [4] is 8.79. Besides, the IC50 in experiment [5] worked out at 10.1 µM.
On to `O=c1nc(-c2ccccc2)c(-c2ccccc2)nn1Cc1nnc(Nc2ccc(Cl)cc2)o1`, for which the figures for the Activity in experiment [3] and in experiment [1] were 57.9 - 61.56% and 71.9 to 79.2%, respectively.
In turn, `COc1ccc(-n2c(S)nnc2Cn2nc(-c3ccccc3)c(-c3ccccc3)nc2=O)cc1` registered an Activity in experiment [1] of 71.9 to 79.2%.
For the compound `Cc1sc2nnn(-c3ccccc3)c(=O)c2c1C`, the Activity in experiment [2] is recorded as 70.82%.
`CCOC(=O)c1cnn(-c2ccccn2)c1-n1nnc2ccccc2c1=O` came in with an IC50 in experiment [8] of 20 µM.
As to `Cc1ccc(Nc2nc(-c3ccccc3)c3c(n2)sc2c(Cl)nnnc23)cc1`, in experiment [7], the Activity was 82.85%.
In turn, `O=c1nc(-c2ccccc2)c(-c2ccccc2)nn1Cc1nnc(Nc2ccccc2)s1` came in with an Activity in experiment [1] of 71.9 to 79.2%.
Same read-out and setting: the value for `O=c1nc(-c2ccccc2)c(-c2ccccc2)nn1Cc1nnc(S)n1-c1ccc([N+](=O)[O-])cc1` was 71.9 to 79.2%.
In experiment [1], `COc1ccc(Nc2nnc(Cn3nc(-c4ccccc4)c(-c4ccccc4)nc3=O)s2)cc1` came in with an Activity of 71.9 to 79.2%.
In turn, `O=c1nc(-c2ccccc2)c(-c2ccccc2)nn1Cc1nnc(S)n1-c1ccccc1` yielded an Activity in experiment [1] of 71.9 to 79.2%.
`Cc1sc2nnn(-c3ccccc3Cl)c(=O)c2c1C`: the Activity in experiment [2] was 36.47%.
For the compound `Cc1ccc(Nc2nc(-c3ccccc3)c3c(n2)sc2c(Nc4ccc(S(=O)(=O)NC(=N)N)cc4)nnnc23)cc1`, the Activity in experiment [7] worked out at 78.57%.
For the compound `O=c1nc(-c2ccccc2)c(-c2ccccc2)nn1Cc1nnc(Nc2ccccc2)o1`, the Activity in experiment [3] is 57.9 - 61.56%; in experiment [1], 71.9 to 79.2%.
`O=c1nc(-c2ccccc2)c(-c2ccccc2)nn1Cc1nnc(Nc2ccc([N+](=O)[O-])cc2)o1`: the values for the Activity in experiment [3] and in experiment [1] were 57.9 - 61.56% and 71.9 to 79.2%, respectively.
Take `CCOC(=O)CSc1nnc(-c2ccc(S(C)(=O)=O)cc2)c(-c2ccccc2)n1`: the Ratio IC50 in experiment [4] amounted to 8.79. Moreover, the IC50 in experiment [5] turned out to be 10.1 µM.
Regarding `COc1ccc(-c2nnc(N/N=C/c3cccc(OC)c3OC)nc2-c2ccc(OC)cc2)cc1`, in experiment [6], the inhibition is 78%.

(Values after ChEMBL document CHEMBL4325906, “Anti-inflammatory activity of triazine derivatives: A systematic review” (Eur J Med Chem, 2019).)
